OC[C@H]1O[C@@H]2O[C@H]3[C@H](O)[C@@H](O)[C@@H](O[C@H]4[C@H](O)[C@@H](O)[C@@H](O[C@H]5[C@H](O)[C@@H](O)[C@@H](O[C@H]6[C@H](O)[C@@H](O)[C@@H](O[C@H]7[C@H](O)[C@@H](O)[C@@H](O[C@H]8[C@H](O)[C@@H](O)[C@@H](O[C@H]1[C@H](O)[C@H]2O)O[C@@H]8CO)O[C@@H]7CO)O[C@@H]6CO)O[C@@H]5CO)O[C@@H]4CO)O[C@@H]3CO [β-cyclodextrin]
optimal solubility of β-cyclodextrin (distilled water): 20 mM
β-cyclodextrin solubility (water): 230 mM

From EP1974751A1, “Formulations for non-steroidal anti-inflammatory drugs” (The Jordanian Pharmaceutical Manufacturing Co., priority 2007, dated 2008)
